One assay addresses Human M3 receptor (Homo sapiens, UniProt P20309). Particulars: read-out: M3 binding affinity.
The target in another assay is Human β2 adrenoceptor (Homo sapiens, UniProt P07550). Particulars: read-out: B2 binding affinity.

Where only a bound is given, the exact number is not on record here.

Sequence of Human M3 receptor (P20309 whole entry): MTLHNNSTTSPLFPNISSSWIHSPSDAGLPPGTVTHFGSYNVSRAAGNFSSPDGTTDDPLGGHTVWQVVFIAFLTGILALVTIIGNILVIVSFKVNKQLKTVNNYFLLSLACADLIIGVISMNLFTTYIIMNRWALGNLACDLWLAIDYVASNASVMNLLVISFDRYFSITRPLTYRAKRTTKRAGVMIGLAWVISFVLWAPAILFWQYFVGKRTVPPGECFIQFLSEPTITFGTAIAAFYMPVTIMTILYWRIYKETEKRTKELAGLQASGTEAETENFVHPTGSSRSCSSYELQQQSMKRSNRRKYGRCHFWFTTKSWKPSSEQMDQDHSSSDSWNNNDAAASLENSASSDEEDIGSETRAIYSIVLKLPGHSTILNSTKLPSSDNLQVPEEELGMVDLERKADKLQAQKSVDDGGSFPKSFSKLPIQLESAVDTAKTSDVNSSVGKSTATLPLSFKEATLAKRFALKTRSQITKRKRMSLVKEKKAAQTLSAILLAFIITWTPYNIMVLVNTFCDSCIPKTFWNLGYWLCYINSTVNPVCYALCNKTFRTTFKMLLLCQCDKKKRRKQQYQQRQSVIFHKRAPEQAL
Sequence of Human β2 adrenoceptor (P07550 whole entry): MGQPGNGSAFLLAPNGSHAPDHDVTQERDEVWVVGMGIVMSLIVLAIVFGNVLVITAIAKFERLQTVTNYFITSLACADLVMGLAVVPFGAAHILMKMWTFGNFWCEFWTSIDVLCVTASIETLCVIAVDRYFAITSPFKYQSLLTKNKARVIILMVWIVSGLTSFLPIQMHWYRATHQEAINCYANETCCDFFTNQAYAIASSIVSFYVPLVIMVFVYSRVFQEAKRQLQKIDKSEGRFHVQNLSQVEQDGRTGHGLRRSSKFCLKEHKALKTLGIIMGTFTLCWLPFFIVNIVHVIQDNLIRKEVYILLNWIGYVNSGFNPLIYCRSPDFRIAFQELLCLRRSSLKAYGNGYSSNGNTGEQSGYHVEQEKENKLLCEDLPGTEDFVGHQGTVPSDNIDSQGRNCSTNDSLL

Take `O=C(COc1cccc([C@](O)(C(=O)OCC2CCN(Cc3ccccc3)CC2)c2ccccc2)c1)N[C@H]1C[C@H](NC(=O)Cc2ccc(CNC[C@H](O)c3ccc(O)c4[nH]c(=O)ccc34)cc2)C1` [Compound 146, (1-benzylpiperidin-4-yl)methyl (S)-2-hydroxy-2-(3-(2-(((1R,3S)-3-(2-(4-((((R)-2-hydroxy-2-(8-hydroxy-2-oxo-1,2-dihydroquinolin-5-yl)ethyl)amino)methyl)phenyl)acetamido)cyclobutyl)amino)-2-oxoethoxy)phenyl)-2-phenylacetate]: the IC50 was 0.3 to 3 nM on Human M3 receptor and greater than 3 nM at Human β2 adrenoceptor.
The matching figures for `O=C(COc1cccc([C@](O)(C(=O)OCC2CCN(Cc3ccccc3)CC2)c2ccccc2)c1)N1CC(C(=O)N2CCC(CNC[C@H](O)c3ccc(O)c4[nH]c(=O)ccc34)CC2)C1` [Compound 147, (1-Benzylpiperidin-4-yl)methyl (S)-2-hydroxy-2-(3-(2-(3-(4-((((R)-2-hydroxy-2-(8-hydroxy-2-oxo-1,2-dihydroquinolin-5-yl)ethyl)amino)methyl)piperidine-1-carbonyl)azetidin-1-yl)-2-oxoethoxy)phenyl)-2-phenylacetate]: 0.3 to 3 nM and less than 0.3 nM.
For `O=C(COc1cccc([C@](O)(C(=O)OCC2CCN(Cc3ccccc3)CC2)c2ccccc2)c1)N1CCC(C(=O)N2CCC(CNC[C@H](O)c3ccc(O)c4[nH]c(=O)ccc34)CC2)CC1` [Compound 148, (1-benzylpiperidin-4-yl)methyl (S)-2-hydroxy-2-(3-(2-(4-(4-((((R)-2-hydroxy-2-(8-hydroxy-2-oxo-1,2-dihydroquinolin-5-yl)ethyl)amino)methyl)piperidine-1-carbonyl)piperidin-1-yl)-2-oxoethoxy)phenyl)-2-phenylacetate], the IC50 was 0.3 to 3 nM on Human M3 receptor and less than 0.3 nM at Human β2 adrenoceptor.
Taken in the same sequence, the figures for `O=C(COc1cccc([C@](O)(C(=O)OCC2CCN(Cc3ccccc3)CC2)c2ccccc2)c1)N[C@H]1CC[C@H](C(=O)N2CCC(CNC[C@H](O)c3ccc(O)c4[nH]c(=O)ccc34)CC2)CC1` [Compound 149, (1-benzylpiperidin-4-yl)methyl (S)-2-hydroxy-2-(3-(2-(((1R,4S)-4-(4-((((R)-2-hydroxy-2-(8-hydroxy-2-oxo-1,2-dihydroquinolin-5-yl)ethyl)amino)methyl)piperidine-1-carbonyl)cyclohexyl)amino)-2-oxoethoxy)phenyl)-2-phenylacetate] were less than 0.3 nM and 0.3 to 3 nM.
The matching figures for `O=C(COc1cccc([C@](O)(C(=O)OCC2CCN(Cc3ccccc3)CC2)c2ccccc2)c1)NCC(=O)N1CCC(CNC[C@H](O)c2ccc(O)c3[nH]c(=O)ccc23)CC1` [Compound 150, (1-benzylpiperidin-4-yl)methyl (S)-2-hydroxy-2-(3-(2-((2-(4-((((R)-2-hydroxy-2-(8-hydroxy-2-oxo-1,2-dihydroquinolin-5-yl)ethyl)amino)methyl)piperidin-1-yl)-2-oxoethyl)amino)-2-oxoethoxy)phenyl)-2-phenylacetate]: less than 0.3 nM and less than 0.3 nM.
Consider `O=C(c1ccc(CCNC[C@H](O)c2ccc(O)c3[nH]c(=O)ccc23)cc1)N1CCC(C(=O)N2CCC(COc3cccc([C@](O)(C(=O)OCC4CCN(Cc5ccccc5)CC4)c4ccccc4)c3)CC2)CC1` [Compound 151, (1-Benzylpiperidin-4-yl)methyl (S)-2-hydroxy-2-(3-((1-(1-(4-(2-(((R)-2-hydroxy-2-(8-hydroxy-2-oxo-1,2-dihydroquinolin-5-yl)ethyl)amino)ethyl)benzoyl)piperidine-4-carbonyl)piperidin-4-yl)methoxy)phenyl)-2-phenylacetate], for which the IC50 at Human M3 receptor and at Human β2 adrenoceptor was less than 0.3 nM throughout.
On to `O=C(NCC(=O)N1CCC(COc2cccc([C@](O)(C(=O)OCC3CCN(Cc4ccccc4)CC3)c3ccccc3)c2)CC1)c1ccc(CCNC[C@H](O)c2ccc(O)c3[nH]c(=O)ccc23)cc1` [Compound 152, (1-benzylpiperidin-4-yl)methyl (S)-2-hydroxy-2-(3-((1-((4-(2-(((R)-2-hydroxy-2-(8-hydroxy-2-oxo-1,2-dihydroquinolin-5-yl)ethyl)amino)ethyl)benzoyl)glycyl)piperidin-4-yl)methoxy)phenyl)-2-phenylacetate], for which the IC50 at Human M3 receptor was less than 0.3 nM; on Human β2 adrenoceptor, 0.3 to 3 nM.
For the molecule `COc1cc(C(=O)NCC(=O)N2CCC(COc3cccc([C@](O)(C(=O)OCC4CCN(Cc5ccccc5)CC4)c4ccccc4)c3)CC2)ccc1CNC[C@H](O)c1ccc(O)c2[nH]c(=O)ccc12` [Compound 153, (1-benzylpiperidin-4-yl)methyl (S)-2-hydroxy-2-(3-((1-((4-((((R)-2-hydroxy-2-(8-hydroxy-2-oxo-1,2-dihydroquinolin-5-yl)ethyl)amino)methyl)-3-methoxybenzoyl)glycyl)piperidin-4-yl)methoxy)phenyl)-2-phenylacetate], the IC50 on Human M3 receptor and on Human β2 adrenoceptor was less than 0.3 nM each time.
Regarding `O=C(NCC(=O)N1CCC(COc2cccc([C@](O)(C(=O)OCC3CCN(Cc4ccccc4)CC3)c3ccccc3)c2)CC1)c1ccc(CNC[C@H](O)c2ccc(O)c3[nH]c(=O)ccc23)cc1` [Compound 154, (1-benzylpiperidin-4-yl)methyl (S)-2-hydroxy-2-(3-((1-((4-((((R)-2-hydroxy-2-(8-hydroxy-2-oxo-1,2-dihydroquinolin-5-yl)ethyl)amino)methyl)benzoyl)glycyl)piperidin-4-yl)methoxy)phenyl)-2-phenylacetate], the IC50 on Human M3 receptor and at Human β2 adrenoceptor was less than 0.3 nM each time.
Turning to `COc1cc(CNC[C@H](O)c2ccc(O)c3[nH]c(=O)ccc23)ccc1C(=O)NCC(=O)N1CCC(COc2cccc([C@](O)(C(=O)OCC3CCN(Cc4ccccc4)CC3)c3ccccc3)c2)CC1` [Compound 155, (1-benzylpiperidin-4-yl)methyl (S)-2-hydroxy-2-(3-((1-((4-((((R)-2-hydroxy-2-(8-hydroxy-2-oxo-1,2-dihydroquinolin-5-yl)ethyl)amino)methyl)-2-methoxybenzoyl)glycyl)piperidin-4-yl)methoxy)phenyl)-2-phenylacetate], the results for the IC50 on Human M3 receptor and on Human β2 adrenoceptor were 0.3 to 3 nM and less than 0.3 nM, respectively.
Taken in the same sequence, the figures for `O=C(c1ccc(C(=O)N2CCC(COc3cccc([C@](O)(C(=O)OCC4CCN(Cc5ccccc5)CC4)c4ccccc4)c3)CC2)s1)N1CCC(CNC[C@H](O)c2ccc(O)c3[nH]c(=O)ccc23)CC1` [Compound 156, (1-Benzylpiperidin-4-yl)methyl (S)-2-hydroxy-2-(3-((1-(5-(4-((((R)-2-hydroxy-2-(8-hydroxy-2-oxo-1,2-dihydroquinolin-5-yl)ethyl)amino)methyl)piperidine-1-carbonyl)thiophene-2-carbonyl)piperidin-4-yl)methoxy)phenyl)-2-phenylacetate] were less than 0.3 nM and less than 0.3 nM.
On to `O=C(OCC1CCN(Cc2ccccc2)CC1)[C@](O)(c1ccccc1)c1cccc(OCC2CCN(C(=O)[C@H]3CC[C@H](C(=O)N4CCC(CNC[C@H](O)c5ccc(O)c6[nH]c(=O)ccc56)CC4)CC3)CC2)c1` [Compound 157, (1-benzylpiperidin-4-yl)methyl (S)-2-hydroxy-2-(3-((1-((1R,4S)-4-(4-((((R)-2-hydroxy-2-(8-hydroxy-2-oxo-1,2-dihydroquinolin-5-yl)ethyl)amino)methyl)piperidine-1-carbonyl)cyclohexane-1-carbonyl)piperidin-4-yl)methoxy)phenyl)-2-phenylacetate], for which the IC50 is 0.3 to 3 nM at Human M3 receptor and greater than 3 nM at Human β2 adrenoceptor.
For `O=C(NCCCOc1cccc([C@](O)(C(=O)OCC2CCN(C3CCC3)CC2)c2ccccc2)c1)c1ccc(CNC[C@H](O)c2ccc(O)c3[nH]c(=O)ccc23)cc1` [Compound 161, (1-cyclobutylpiperidin-4-yl)methyl (S)-2-hydroxy-2-(3-(3-(4-((((R)-2-hydroxy-2-(8-hydroxy-2-oxo-1,2-dihydroquinolin-5-yl)ethyl)amino)methyl)benzamido)propoxy)phenyl)-2-phenylacetate], the results for the IC50 at Human M3 receptor and at Human β2 adrenoceptor were 0.3 to 3 nM and less than 0.3 nM, respectively.
Taken in the same sequence, the figures for `CN1CCC(COC(=O)[C@](O)(c2ccccc2)c2cccc(OCCCNC(=O)c3ccc(CNC[C@H](O)c4ccc(O)c5[nH]c(=O)ccc45)cc3)c2)CC1` [Compound 162, (1-methylpiperidin-4-yl)methyl (S)-2-hydroxy-2-(3-(3-(4-((((R)-2-hydroxy-2-(8-hydroxy-2-oxo-1,2-dihydroquinolin-5-yl)ethyl)amino)methyl)benzamido)propoxy)phenyl)-2-phenylacetate] were 0.3 to 3 nM and less than 0.3 nM.

The values above are taken from patent publication US9579314B2 (priority 2015, dated 2017).
